Experimental data taken from US9499504B2, “Crystalline form of vortioxetine hydrobromide” (Sandoz AG, priority 2012, dated 2016).
Values belong to the compound of their own block, whether it stands above or below them.

Tests used:
[1] = Solid-state stability of the hydrate at room temperature; format: physicochemical; details: not stable
Source text: The novel hydrate of vortioxetine hydrobromide is not stable at room temperature and converts to form alpha of WO 2007/144005 A1 within about 4 weeks.

[2] = exposed to high relative humidity; example 4f of WO 2007/144005 A1; cited from earlier work
[3] = Solubility as a function of time in hexanol/n-heptane (1:39 v:v), UV-spectrophotometry; format: physicochemical; details: 25±1° C., UV at 227 nm, hydrobromide
Source text: It is known to a person skilled in the art that the difference in the relative solubility of two polymorphs is independent from the solvent system, if an “ideal solution”, meaning a solution which is not too concentrated, is present. (see e.g. Kuhnert-Brandstätter M., Burger A., Pharmazeutische Industrie, 1972, 34, Nr. 3, 187-190; Samuel H. Yalowsky, Solubility and Solubilization in Aqueous Media, ACS, Oxford University Press 1999, ISBN: 0-8412-3576-7, p. 98). Therefore the solubilities of vortioxetine hydrobromide forms alpha and beta of WO 2007/144005 A1 and the compound of the present invention were determined in a mixture of hexanol and n-heptane. […] (see example 4 of the present invention).
The solubilities as a function of time were determined for vortioxetine hydrobromide polymorphs alpha, beta and the crystalline compound of the present invention, respectively. Therefore approximately 100 mg of each polymorph (polymorph alpha and beta were obtained according to the procedures disclosed in WO 2007/144005 A1, the crystalline compound of the present invention was obtained according to the procedure disclosed in example 1 herein) were stirred in 50 mL of a mixture of hexanol/n-heptane (1:39=v:v) at 25±1° C. Subsequently 5 mL were taken from each suspension after 1, 5, 10, 15, 30 and 60 minutes with the aid of a volumetric pipette and filtered. The concentrations of the obtained solutions were determined directly by UV-spectrophotometry (apparatus: Shimadzu UV1800) at 227 nm.
The determination of the extinction coefficient was performed with polymorph delta as a calibration substance.

[4] = Water solubility calculated from relative solubilities and WO 2007/144005 A1 water solubility data; details: calculation with water solubility value of polymorph alpha (2.0 mg/mL) from WO 2007/144005 A1, hydrobromide
Source text: (§1) Using the water solubility values of polymorphs alpha and beta provided in WO 2007/144005 A1 and the herein determined relative solubilities of polymorphs alpha, beta and delta the water solubility of the crystalline compound of the present invention can be calculated.

[5] = Gravimetric moisture sorption/desorption cycle; format: physicochemical
Source text: In addition, an active pharmaceutical ingredient is preferably non-hygroscopic in order to ensure the chemical and physical quality during the storage of the active substance itself. Furthermore, an active pharmaceutical ingredient is preferably non-hygroscopic in order to ensure the chemical and physical quality also during the shelf-life of a solid finished dosage form containing the active substance. Special and expensive packaging can then be avoided. […] For instance, in example 4f of WO 2007/144005 A1, it is mentioned that form gamma absorbs about 4.5% water when exposed to high relative humidity and in example 4h of the same application it is stated that the water content of the hemihydrate strongly depends on the relative humidity. For instance, the water content of the hemihydrate at 95% relative humidity is about 3.7% according to example 4h of WO 2007/144005.
Gravimetric moisture sorption/desorption curves were acquired using a SPS-11 moisture sorption analyzer (MD Messtechnik, Ulm, D). The measurement cycle was started at 43% relative humidity (RH) and decreased in 10% steps down to 0% RH; up to 95% RH, down to 0% RH and up to 43% RH. The equilibrium condition for each step was set to a mass constancy of ±0.01% over 30 min. The temperature was 25±0.1° C.

[6] = physchem; details: water
Source text: as §1

SMILES: Br.Cc1ccc(Sc2ccccc2N2CCNCC2)c(C)c1 [form gamma, 1-{2-[(2,4-dimethylphenyl)sulfanyl]phenyl}piperazine hydrobromide]
water absorbed [2]: about 4.5%

SMILES: Br.Cc1ccc(Sc2ccccc2N2CCNCC2)c(C)c1 [polymorph alpha, 1-{2-[(2,4-dimethylphenyl)sulfanyl]phenyl}piperazine hydrobromide]
absolute solubility in hexanol/n-heptan (1:39 = v:v) ([3]; listed as alpha): 0.031 mg/mL

SMILES: Br.Cc1ccc(Sc2ccccc2N2CCNCC2)c(C)c1 [polymorph beta, 1-{2-[(2,4-dimethylphenyl)sulfanyl]phenyl}piperazine hydrobromide, reference compound]
absolute solubility in hexanol/n-heptan (1:39 = v:v) ([3]; listed as beta): 0.015 mg/mL | calculated water solubility 1) [4]: 1.0 mg/mL

More lines, now with the values ahead:

time to conversion to form alpha [1]: ≤ 4 weeks
SMILES: Cc1ccc(Sc2ccccc2N2CCNCC2)c(C)c1

absolute solubility in hexanol/n-heptan (1:39 = v:v) ([3]; listed as present invention): 0.048 mg/mL | hygroscopicity ([5]; according to the specifications of the European Pharmacopoeia): non-hygroscopic | water content ([5]; relative humidity of about 0%, 25° C.): about 0.3% | water content ([5]; relative humidity of about 80%, 25° C.): about 0.5% | water content ([5]; up to a relative humidity of about 95%): less than 0.7% | solubility [6]: 3.8 mg/mL | calculated water solubility 1) ([4]; listed as compound of the present invention): 3.0 mg/mL
SMILES: Br.Cc1ccc(Sc2ccccc2N2CCNCC2)c(C)c1 [polymorph delta, 1-{2-[(2,4-dimethylphenyl)sulfanyl]phenyl}piperazine hydrobromide]
